Results: US9877501B2, “Stevia composition” (PureCircle Sdn Bhd, priority 2011, dated 2018)
Read-outs that look alike come from different tables or passages of the source.

Columns and labels:
[1] = cited from earlier work
[2] = carbonated beverages; Chang and Cook 1983; cited from earlier work
[3] = Sensory evaluation of zero-calorie carbonated beverage samples by 20 panelists; conditions: 0.050% stevia composition
Protocol: The sensory properties were evaluated by 20 panelists.

[4] = sensory evaluations, Crammer and Ikan 1986

Molecule	times sweeter than sucrose ([1]; Tanaka 1987, Phillips 1989)	times sweeter than sucrose [1, 4]	heat and pH stability [2]	other results
C=C1C[C@@]23CC[C@H]4[C@@](C)(CCC[C@@]4(C)C(=O)O[C@@H]4O[C@H](CO)[C@@H](O)[C@H](O)[C@H]4O)[C@@H]2CC[C@]1(O[C@@H]1O[C@H](CO)[C@@H](O)[C@H](O)[C@H]1O[C@@H]1O[C@@H](C)[C@H](O)[C@@H](O)[C@H]1O)C3 [Dulcoside A]	30 times			
C=C1C[C@@]23CC[C@H]4[C@@](C)(CCC[C@@]4(C)C(=O)O[C@@H]4O[C@H](CO)[C@@H](O)[C@H](O)[C@H]4O)[C@@H]2CC[C@]1(O[C@@H]1O[C@H](CO)[C@@H](O)[C@H](O[C@@H]2O[C@H](CO)[C@@H](O)[C@H](O)[C@H]2O)[C@H]1O[C@@H]1O[C@H](CO)[C@@H](O)[C@H](O)[C@H]1O)C3 [Reb A, rebaudioside A]		350-450 times	confirmed their heat and pH stability	sensory attributes among major steviol glycosides ([1]; Tanaka 1987, Phillips 1989): the least astringent, the least bitter, and the least persistent aftertaste; Number of panelists detected the attribute: Aftertaste [3]: 12; Number of panelists detected the attribute: Astringent taste [3]: 9; Number of panelists detected the attribute: Bitter taste [3]: 10
C=C1C[C@@]23CC[C@H]4[C@@](C)(CCC[C@@]4(C)C(=O)O[C@@H]4O[C@H](CO)[C@@H](O)[C@H](O)[C@H]4O)[C@@H]2CC[C@]1(O[C@@H]1O[C@H](CO)[C@@H](O)[C@H](O)[C@H]1O[C@@H]1O[C@H](CO)[C@@H](O)[C@H](O)[C@H]1O)C3 [stevioside]	110-270 times		confirmed their heat and pH stability	
Rebaudioside B [reb B]		300-350 times		
rebaudioside C	40-60 times			
